Results: PubChem BioAssay AID2060899 (Molecular Pharmacology Branch, DTP, NCI, 2025)

Tested on: 565726-208-R1-J5-PDC complex spheroids, growth inhibition
Assay: Anticancer human tumor 565726-208-R1-J5-PDC patient-derived pancreatic adenocarcinoma cell line growth inhibition [RAS]
Settings: for IC50: curve of first compound; for viability, T/C: stronger effect = lower value
Source text: RAS pathway inhibitors in Combinations in Complex Spheroids
A high-throughput screen of multi-cell type tumor spheroids was designed to identify active combinations of RAS pathway inhibitors and targeted small molecules. Complex spheroids include a stromal component modeled by human endothelial cells (HUVEC) and fibroblasts modeled by human mesenchymal stem cells (MSCs). The concentration ranges selected for each drug and investigational agent were based upon clinically achievable concentrations if the clinical Cmax of the agent was known.
Compounds. The drugs and investigational agents: abemaciclib (NSC768073), cobimetinib (NSC768068), divarasib (GDC6063, NSC841802), docetaxel (NSC628503), GDC-1971 (RLY-1971, NSC841576), gemcitabine (NSC613327), inavolisib (NSC800729), ipatasertib (NSC767898), KB-0742 (NSC834161), MRTX-1133 (NSC836407), osimertinib (NSC779217), RMC-4630 (NSC839698), RMC-6236 (NSC851965), RMC-6291 (NSC852671), Ro-3306 (NSC812927), sapanisertib (NSC764658), SN-38 (NSC673596), staurosporine (NSC755774), SY5609 (NSC837396), and tovorafenib (DAY101, NSC766906), were obtained from the National Cancer Institute (NCI) Developmental Therapeutics Program Chemical Repository. The FDA-approved anticancer drug set is available from the NCI Developmental Therapeutics Program. […] The stock solutions were prepared in dimethyl sulfoxide (DMSO, Sigma-Aldrich, St. Louis, MO, cat. D2650) at 800-fold the tested concentration and stored at -70 degrees C prior to their use. All drugs and investigational agents were tested over a range starting from a high concentration at or near the clinical Cmax and decreasing in half-log increments. If the clinical Cmax for an agent had not been determined, the highest concentration tested was 10 microM.
Cell Culture. All cells were maintained in an incubator at 37 degrees C and 5% CO2 with 95% humidity. The PDC lines were cultured according to standard operating procedures established by the NCI PDMR. All PDCs were thawed and cultured in Matrigel-coated flasks prepared with a working solution of 1X Ham's F-12 nutrient mix, without supplementation (Invitrogen, Waltham, MA, cat. 11765054), 100 U/mL penicillin-streptomycin (Invitrogen, cat. 15140122), and 2.5% Matrigel (Corning Inc., Corning, NY, cat. 354248) for the first three passages. The 362531-283-R-J2-PDC and 782815-120-R-J1-PDC lines were cultured in 6C/Colon 1B media, which includes advanced DMEM/F-12 (Thermo Fisher Scientific, cat. 12634028), 10 mM HEPES (Thermo Fisher Scientific, cat. 15630080), 1X GlutaMAX supplement (Thermo Fisher Scientific, cat. 35050061), 0.1 mg/mL primocin (InvivoGen, San Diego, CA, cat. ant-pm-2), 10% defined fetal bovine serum, heat inactivated (HyClone Laboratories Inc., Logan, UT, cat. SH30070.03HI), 50% L-WRN conditioned media (ATCC, cat. CRL-3276), 1.25 mM N-Acetyl-L-cysteine (Sigma-Aldrich, cat. A9165), 10 mM nicotinamide (Sigma-Aldrich, cat. N0636), 1X B-27 supplement (Thermo Fisher Scientific, cat. 17504044), 1X N-2 supplement (Thermo Fisher Scientific, cat. 17502048), 50 ng/mL human EGF (Thermo Fisher Scientific, cat. PHG0311), and 10 microM Y-27632 dihydrochloride (Tocris Bioscience, cat. 1254). The K12877-001-R-J1-PDC line was cultured in 6I media, which includes all 6C/Colon 1B media plus 10 ng/mL human FGF-10 (PeproTech, cat. 100-26), 1 ng/mL human FGF-2 (PeproTech, cat. 100-18B), 1 µM prostaglandin E2 (Tocris Bioscience, cat. 2296), […] hydrocortisone (Sigma-Aldrich, cat. H4001), and […] bovine insulin (Sigma-Aldrich, cat. I6634). The K86415-001-R-J1-PDC line was cultured in 6D media, which includes all 6C/Colon 1B media components minus the L-WRN conditioned media. The 485176-168-R4-J1-PDC was cultured in PANC media, which includes all 6C/Colon 1B media plus 100 ng/mL human FGF-10 (PeproTech, cat. 100-26), 500 nM SB-431542 (Selleckchem, cat. S1067), and 10 nM gastrin (Tocris Bioscience, cat. 3006). […]
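Further: spheroids exposed to compounds for seven days before readout.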
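Wherever viability, T/C is given: 100% = DMSO vehicle control viability.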

CC(=O)OC12COC1CC(O)C1(C)C(=O)C(O)C3=C(C)C(OC(=O)C(O)C(NC(=O)OC(C)(C)C)c4ccccc4)CC(O)(C(OC(=O)c4ccccc4)C21)C3(C)C (configuration not stated) + C#Cc1c(F)ccc2cc(O)cc(-c3ncc4c(N5CC6CCC(C5)N6)nc(OCC56CCCN5CC(F)C6)nc4c3F)c12
IC50 (second compound 0.0316 µM): < 31.6 nM
IC50 (second compound 0.1 µM): < 31.6 nM
IC50 (second compound 0.316 µM): < 31.6 nM
IC50 (second compound 1 µM): < 31.6 nM
IC50 (second compound 3.16 µM): < 31.6 nM
IC50 (second compound 10 µM): < 31.6 nM
viability, T/C (second compound 0.0316 µM, first compound 0.0316 µM): 18.9%
viability, T/C (second compound 0.0316 µM, first compound 0.1 µM): 20.3%
viability, T/C (second compound 0.0316 µM, first compound 0.316 µM): 14.2%
viability, T/C (second compound 0.0316 µM, first compound 1 µM): 19.1%
viability, T/C (second compound 0.0316 µM, first compound 3.16 µM): 21.4%
viability, T/C (second compound 0.0316 µM, first compound 10 µM): 27%
viability, T/C (second compound 0.1 µM, first compound 0.0316 µM): 16.9%
viability, T/C (second compound 0.1 µM, first compound 0.1 µM): 20.3%
viability, T/C (second compound 0.1 µM, first compound 0.316 µM): 19.1%
viability, T/C (second compound 0.1 µM, first compound 1 µM): 15.5%
viability, T/C (second compound 0.1 µM, first compound 3.16 µM): 18.8%
viability, T/C (second compound 0.1 µM, first compound 10 µM): 29.8%
viability, T/C (second compound 0.316 µM, first compound 0.0316 µM): 18.8%
viability, T/C (second compound 0.316 µM, first compound 0.1 µM): 21.2%
viability, T/C (second compound 0.316 µM, first compound 0.316 µM): 16.1%
viability, T/C (second compound 0.316 µM, first compound 1 µM): 18.1%
viability, T/C (second compound 0.316 µM, first compound 3.16 µM): 22.8%
viability, T/C (second compound 0.316 µM, first compound 10 µM): 30.4%
viability, T/C (second compound 1 µM, first compound 0.0316 µM): 20%
viability, T/C (second compound 1 µM, first compound 0.1 µM): 21.3%
viability, T/C (second compound 1 µM, first compound 0.316 µM): 14.5%
viability, T/C (second compound 1 µM, first compound 1 µM): 17.3%
viability, T/C (second compound 1 µM, first compound 3.16 µM): 24.9%
viability, T/C (second compound 1 µM, first compound 10 µM): 26.6%
viability, T/C (second compound 3.16 µM, first compound 0.0316 µM): 19.3%
viability, T/C (second compound 3.16 µM, first compound 0.1 µM): 24.1%
viability, T/C (second compound 3.16 µM, first compound 0.316 µM): 23.5%
viability, T/C (second compound 3.16 µM, first compound 1 µM): 19.9%
viability, T/C (second compound 3.16 µM, first compound 3.16 µM): 25.9%
viability, T/C (second compound 3.16 µM, first compound 10 µM): 26.7%
viability, T/C (second compound 10 µM, first compound 0.0316 µM): 17.7%
viability, T/C (second compound 10 µM, first compound 0.1 µM): 23.9%
viability, T/C (second compound 10 µM, first compound 0.316 µM): 22.1%
viability, T/C (second compound 10 µM, first compound 1 µM): 23.1%
viability, T/C (second compound 10 µM, first compound 3.16 µM): 21%
viability, T/C (second compound 10 µM, first compound 10 µM): 22.4%
